Experimental data: US12138272B2, “Methods and compositions for treating amyotrophic lateral sclerosis” (Amylyx Pharmaceuticals, Inc., priority 2022, dated 2024)
Values after ≈ are worked out from the molar mass of the structure shown. “Also recorded” adds a separate entry of the source. Marks after values point to notes of the source that are not given here.

Legend:
Caco-2 cells = assay: Recovery of test article in the Caco-2 efflux assay; assay type: in vitro ADME; conditions: 1 and 10 μM, in the presence of cells
Procedure: Non-specific binding of phenylacetic acid to the transwell assay plate in the absence of cells was not conducted. However, the recovery of the test article (1 and 10 μM) was determined in the Caco-2 efflux assay, in the presence of cells, and was acceptable.

BSEP [1] = target: T1, BSEP (Homo sapiens, UniProt O95342); assay: in vitro
[2] = Solubility in stock solvent and assay buffers
BSEP [3] = target: T1, BSEP; assay: Inhibition of 3H-taurocholic acid uptake by BSEP membrane vesicles (inhibitor assessment); conditions: for inhibitor of BSEP (conclusion in words): criterion >25% concentration-dependent inhibition of probe substrate uptake; for ATP-Dependent Uptake Activity of 3H-taurocholic acid / Signal-to-Noise Ratio / Uptake Activity of 3H-taurocholic acid, Mg-AMP / Uptake Activity of 3H-taurocholic acid, Mg-ATP: 3H-taurocholic acid 1 μM
BSEP [4] = target: T1, BSEP; assay: ATP-dependent uptake of test article by BSEP-transfected Sf9 membrane vesicles (substrate assessment); conditions: for substrate of BSEP (conclusion in words): criteria ≥2-fold ATP-dependent uptake and >50% inhibition by selective inhibitor
[5] = test article 1 μM + cyclosporine 20 μM
[6] = test article 10 μM + cyclosporine 20 μM

T1 sequence (O95342 whole entry): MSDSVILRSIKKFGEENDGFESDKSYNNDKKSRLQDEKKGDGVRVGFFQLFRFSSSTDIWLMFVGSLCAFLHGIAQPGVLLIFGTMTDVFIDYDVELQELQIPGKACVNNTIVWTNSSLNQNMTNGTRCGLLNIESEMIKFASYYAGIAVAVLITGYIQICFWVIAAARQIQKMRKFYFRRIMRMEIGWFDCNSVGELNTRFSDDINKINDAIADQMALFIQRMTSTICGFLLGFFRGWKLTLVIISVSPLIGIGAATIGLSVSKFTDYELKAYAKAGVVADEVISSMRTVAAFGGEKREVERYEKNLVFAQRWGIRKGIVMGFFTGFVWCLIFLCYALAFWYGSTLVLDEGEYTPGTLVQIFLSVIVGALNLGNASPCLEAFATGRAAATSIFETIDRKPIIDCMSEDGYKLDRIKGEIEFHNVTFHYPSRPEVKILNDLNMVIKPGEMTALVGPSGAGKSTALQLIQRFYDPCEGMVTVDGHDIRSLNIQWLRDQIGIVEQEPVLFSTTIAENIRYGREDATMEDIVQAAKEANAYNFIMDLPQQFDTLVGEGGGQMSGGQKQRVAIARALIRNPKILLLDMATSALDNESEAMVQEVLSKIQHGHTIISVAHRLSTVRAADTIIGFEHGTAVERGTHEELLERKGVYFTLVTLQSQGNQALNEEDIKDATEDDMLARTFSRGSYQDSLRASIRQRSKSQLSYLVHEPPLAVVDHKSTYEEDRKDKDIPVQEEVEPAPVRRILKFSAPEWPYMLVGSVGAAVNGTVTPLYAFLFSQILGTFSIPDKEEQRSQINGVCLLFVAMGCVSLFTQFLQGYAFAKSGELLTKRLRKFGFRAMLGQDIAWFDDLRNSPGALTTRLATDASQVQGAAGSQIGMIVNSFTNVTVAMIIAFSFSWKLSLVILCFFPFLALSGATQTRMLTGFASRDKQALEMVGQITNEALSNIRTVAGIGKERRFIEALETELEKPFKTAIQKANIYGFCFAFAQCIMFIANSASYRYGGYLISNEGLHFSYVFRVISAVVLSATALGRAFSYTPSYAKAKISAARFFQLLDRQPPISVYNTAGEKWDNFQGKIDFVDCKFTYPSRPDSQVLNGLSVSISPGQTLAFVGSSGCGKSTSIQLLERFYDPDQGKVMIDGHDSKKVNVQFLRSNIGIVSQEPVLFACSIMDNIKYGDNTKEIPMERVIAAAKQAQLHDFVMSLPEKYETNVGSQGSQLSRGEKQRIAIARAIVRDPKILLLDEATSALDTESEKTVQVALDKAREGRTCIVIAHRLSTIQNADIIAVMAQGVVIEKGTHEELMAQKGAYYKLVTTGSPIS

## O=C(O)Cc1ccccc1 [Phenylacetic acid]
Caco-2 cells
  recovery of the test article in the Caco-2 efflux assay: acceptable
BSEP [1]
  activity at 30 min, 750 μM: 99.6%
  activity at 30 min, 7500 μM: 0%
  potency estimated from few doses at 30 min: < 7.5 mM
[2]; aqueous buffer, kinetic from dmso stock
  solubility: 7.5 mM (≈ 1.02 mg/mL)
[2]; methanol, organic solvent or mixture
  solubility: 1500 mM (≈ 204 mg/mL)
BSEP [3]
  inhibitor of BSEP (conclusion in words): strongly inhibited; also recorded: identified as an inhibitor of BSEP; also recorded: inhibited BSEP
BSEP [3]; listed as phenylacetic acid
  inhibitor of BSEP (conclusion in words): inhibit BSEP
BSEP [3]; inhibitor 750 μM
  ATP-Dependent Uptake Activity of 3H-taurocholic acid: 4.68 pmol/minute/mg protein
  Signal-to-Noise Ratio: 17.2
  Uptake Activity of 3H-taurocholic acid, Mg-AMP: 0.288 pmol/minute/mg protein
  Uptake Activity of 3H-taurocholic acid, Mg-ATP: 4.96 pmol/minute/mg protein
BSEP [3]; inhibitor 7500 μM
  ATP-Dependent Uptake Activity of 3H-taurocholic acid: −0.136 pmol/minute/mg protein
  Signal-to-Noise Ratio: 0.731
  Uptake Activity of 3H-taurocholic acid, Mg-AMP: 0.506 pmol/minute/mg protein
  Uptake Activity of 3H-taurocholic acid, Mg-ATP: 0.370 pmol/minute/mg protein
BSEP [4]; test article 1 μM
  ATP-Dependent Uptake Activity of test article: 24.2 pmol/minute/mg protein
  Signal-to-Noise Ratio: 9.95
  Uptake Activity of test article, Mg-AMP: 2.71^b pmol/minute/mg protein
  Uptake Activity of test article, Mg-ATP: 26.9 pmol/minute/mg protein
BSEP [4]; [5]
  ATP-Dependent Uptake Activity of test article: 18.3 pmol/minute/mg protein
  Signal-to-Noise Ratio: 3.41
  Uptake Activity of test article, Mg-AMP: 7.60^c pmol/minute/mg protein
  Uptake Activity of test article, Mg-ATP: 25.9 pmol/minute/mg protein
BSEP [4]; test article 10 μM
  ATP-Dependent Uptake Activity of test article: 814 pmol/minute/mg protein
  Signal-to-Noise Ratio: 12.6
  Uptake Activity of test article, Mg-AMP: 70.3 pmol/minute/mg protein
  Uptake Activity of test article, Mg-ATP: 884 pmol/minute/mg protein
BSEP [4]; [6]
  ATP-Dependent Uptake Activity of test article: 772 pmol/minute/mg protein
  Signal-to-Noise Ratio: 10.1
  Uptake Activity of test article, Mg-AMP: 84.7 pmol/minute/mg protein
  Uptake Activity of test article, Mg-ATP: 857 pmol/minute/mg protein
BSEP [4]; test article 1 and 10 μM
  ATP-dependent BSEP uptake activity relative to AMP uptake: > 2 fold
  substrate of BSEP (conclusion in words): not identified as a substrate
BSEP [4]; test article 1 and 10 μM, listed as phenylacetic acid
  substrate of BSEP (conclusion in words): not a substrate; also recorded: unlikely that phenylacetic acid is a substrate
BSEP [4]; test article 1 and 10 μM, cyclosporine A 20 μM
  inhibition of test article uptake by cyclosporine A: not inhibited by cyclosporine A
